Reference: US11434535B2, “Centromere/kinetochore protein genes for cancer diagnosis, prognosis and treatment selection” (The Regents of the University of California, priority 2014, dated 2022)
Entries after “also recorded” stand apart in the source; their conditions may differ.

Assays:
gastric cancers = experiment: K-M Plotter meta-analysis on chemo-sensitivity, gastric cancer; format: in vivo, human; conditions: gastric cancer patients
Source text: (§1) To address small sample sizes in individual datasets when predicting drug sensitivity, we performed meta-analysis on chemo-sensitivity for several cancer types using K-M Plotter.
(§2) For meta-analysis using K-M Plotter for prognosis, we chose to use the top CES terile as high CES group, and the rest as low CES group. For meta-analysis on sensitivity to adjuvant therapies using K-M Plotter, we chose to use automatically computed best performing CES threshold for patient stratification in all dataset to increase detection sensitivity, even though tertile or median method gave similar results with statistical significance for many datasets. The K-M Plotter software only incorporates genes with probes present on both U133A+B to ensure comparability between datasets for meta-analysis, thus it excluded 7 CEN/KT genes including CENP-H, -W, -L, -K, -P, SPC24 and NUF2, of which 5 are also CES genes. Therefore, we used the 9 remaining CES genes, e.g., CENP-A, HJURP, MIS18B, CENP-N, CENP-M, CENP-U, ZWINT, NDC80, and SPC25, as a simplified version of the CES when using K-M Plotter.

ER+ breast cancer = experiment: K-M Plotter meta-analysis on chemo-sensitivity, ER+ breast cancer relapse-free survival; conditions: ER+ breast cancer patients under the named therapy
Source text: as §1, §2

[1] = system: CCLE (Cancer Cell Line Encyclopedia) cell lines; experiment: CCLE cell lines: IC50 of Topo I inhibitors versus CES value; format: cell-based; conditions: CCLE cell lines binned into CES quartiles
Source text: We mined the Cancer Cell Line Encyclopedia (CCLE) data, which contains information on both drug treatment and gene expression (Barretina et al., 2012). CCLE cell lines were binned into quartiles according to their CES values, we compared the top and bottom CES quartiles for the IC50 of the Topo I inhibitors and DNA damaging agents irinotecan and topotecan.
The Statistical Analysis of Microarrays (SAM) Excel add-on package (the website at www-stat.stanford.edu/˜tibs/SAM/) was used to identify differences between normal and tumor tissues in expression levels of CEN/KT genes (FDR≤0.05 and fold changes ≥2). Sample clustering was performed on the CEN/KT gene expression profiles using hierarchical clustering in Cluster 3.0 and Java Treeview 1.1.6r4 to group samples by centroid. For CCLE drug sensitivity, analysis was performed in Excel (Microsoft) and GraphPad. Kaplan-Meier survival curves for the CES system were generated for patients to evaluate differences in disease-free survival (DFS), stratified into groups of high (upper tertile), intermediate (middle tertile) and low (lower tertile) CES to evaluate differences in disease-free survival (DFS). […] Five-year survival was analyzed by chi-square test for significance.

[2] = system: late stage ovarian cancers; experiment: K-M Plotter meta-analysis on chemo-sensitivity, ovarian cancer overall survival; format: in vivo, human; conditions: ovarian cancer patients, mostly late stage, under the named adjuvant therapy
Source text: as §1, §2

SMILES: O=c1[nH]cc(F)c(=O)[nH]1 [5-FU, 5-fluorouracil]
- prediction power of CES for sensitivity (gastric cancers): no significant prediction power

SMILES: CC/C(=C(\c1ccccc1)c1ccc(OCCN(C)C)cc1)c1ccccc1 [tamoxifen]
- HR associated with high CES, relapse-free survival (RFS) (ER+ breast cancer): 1.80

SMILES: CC[C@@]1(O)C(=O)OCc2c1cc1n(c2=O)Cc2cc3c(CN(C)C)c(O)ccc3nc2-1 [topotecan]
- average IC50, top CES quartile compared to bottom CES quartile [1]: significantly lower IC50s; also recorded: significantly more sensitive
- HR associated with high CES, overall survival [2]: .63

SMILES: CCc1c2c(nc3ccc(OC(=O)N4CCC(N5CCCCC5)CC4)cc13)-c1cc3c(c(=O)n1C2)COC(=O)[C@]3(O)CC [irinotecan]
- average IC50, top CES quartile compared to bottom CES quartile [1]: significantly lower IC50s; also recorded: significantly more sensitive
